From patent US20090030066A1, “SMALL MOLECULES FOR THE PROTECTION OF PANCREATIC CELLS” (priority 2007, published 2009)

What was measured:
STZ-treated mice = assay: Blood glucose and body weight in STZ-treated mice, first experiment (not fasted); format: in vivo; details: for Body weight: in g
Method: Male C57BL/6 mice (12 weeks old) were housed in a specific pathogen-free facility with a 12-h light/dark cycle and given free access to food and water. Animals weighing between 28-31 g were selected for the experiments. In each group, at the start of experiment the body weight among individual animals differed by less than 1-g.
One group of mice received no treatment over the entire experiment. A second group received only 4.5 mg per kg of CCompound1 on days −2, −1, 0, +1, +2, +3, +4, +5, +6 and +7. A third/fourth/fifth/sixth group of animals were treated i.p. with 210 mg/kg of STZ on day 0. The fourth, fifth, and sixth group of animals also received 4.5 mg per kg each of CCompound1 (CC1; 4th group) or CCompound3 (CC3; 5th group), or CCompound19 (CC19; 6th group) on days −2, −1, 0, +1, +2, +3, +4, +5, +6 and +7 (with STZ treatment given on day 0). Each group consisted of 7 animals. Body weight was measured regularly.
CC compounds were dissolved in physiological saline while STZ was dissolved in 100 mM sodium citrate (pH 4.5). All compounds were injected intraperitoneally in 0.5 ml volume. Control animals were injected physiological saline (0.5 ml) on the same days when other groups were treated with CC compounds.
Blood samples were taken from the eye (canthus) of the animals on days −1, 0, +1, +2, +3, +7 and +10, and glucose concentrations in whole blood samples were immediately measured with the commercially available fast Glucose C test. The animals were not fasted prior to taking the blood samples. The results are expressed as the mean values from 7 animals ±std. dev. (S.D.).

[1] = test system: human bone marrow-derived mesenchymal stem cells (MSC); assay: Expansion (cell count) of human bone marrow-derived mesenchymal stem cells; format: cell-based; details: for Cell number per culture: Table 4 experiment; for Cell number/culture: Table 5 experiment
Source text: Bone marrow aspirates were taken from normal adult donors signed after informed consent according to a protocol approved by the appropriate Ethics Committee. For the preparation of bone marrow mesenchymal stem cells, essentially a widely used technique was used as described earlier by others [Pittenger, M. F., Mackay, A. M., Beck, S. C., Jaiswal, R. K., Douglas, R., Mosca, J. D., Moorman, M. A., Simonetti, D. W., Craig, S, and Marshak, D. R., Multilineage potential of adult human mesenchymal stem cells (1999) Science 284, 143-147]. Briefly, nucleated cells were isolated with a pre-prepared commercial density gradient (Lymphoprep, Nycomed, Pharma, Oslo, Norway) and resuspended in Dulbecco's modified Eagle's medium (DMEM) (GIBCO, Grand Island, N.Y.) supplemented with 10% fetal calf serum (FCS), 50 U/ml of penicillin, and 50 μg/ml of streptomycin (GIBCO). All nucleated cells were plated in 25-cm^2 flasks (BD Falcon, Bedford, Mass.) at 37° C. in humidified atmosphere containing 5% CO2. After 24 hours, nonadherent cells were removed and cryopreserved in liquid nitrogen until use. The remaining adherent cells were thoroughly washed with Hanks balanced salt solution (HBSS) (GIBCO). Fresh complete culture medium was added and replaced every 3 or 4 days (twice a week). When cells grew to about 80% confluence, they were suspended and harvested by incubating with a ready-made solution containing 0.25% trypsin and 1 mM EDTA (Sigma-Aldrich, St. Louis, Mo.) for 5 minutes at 37° C.; this cell suspension is designated as passage 1. These cells were further expanded with 1:3-1:5 splitting in 175-cm^2 flasks (BD Falcon).
The total numbers of nucleated and viable cells were determined with a hemocytometer, using Turck's solution and trypan blue stain, respectively. The morphology of MSC was examined every week under an inverted microscope (Olympos CK2, Tokyo, Japan) to verify that cells retained their structural characteristics. In the two experiments described below, MSCs were split into 24-well “F-bottom” plates at passage 5.
In both experiments, about 80% confluent cells were split into 24-well “F-bottom” plates. Then after 24 hours in 10% serum containing medium (at about 30-35% confluence), the medium was replaced for either serum-free medium or 2% or 10 fetal calf serum containing medium. […] In both experiments, the data are the mean ±S.D. of 5 incubations.

With `Cc1c(OCC(O)C[N+](C)(C)C)cc2c(=O)c3ccccc3sc2c1C.[Cl-]` (stereo not shown) [CCcompound1, [3-(3,4-Dimethyl-9-oxo-9H-thioxanthen-2-yloxy)-2-hydroxypropyl]trimethyl-ammonium chloride] the “effect of compound alone on blood glucose level” value (STZ-treated mice; 4.5 mg/kg i.p., no STZ) was “no effect on blood glucose level”, the Body weight (STZ-treated mice; STZ 210 mg/kg + compound 4.5 mg/kg i.p., day 0, unit not given) was 28.2 ± 0.7 and the Body weight (STZ-treated mice; STZ 210 mg/kg + compound 4.5 mg/kg i.p., day +1, unit not given) was 28.0 ± 0.7. For the same compound, the Body weight (STZ-treated mice; STZ 210 mg/kg + compound 4.5 mg/kg i.p., day +2, unit not given) was 26.9 ± 0.8, the Body weight (STZ-treated mice; STZ 210 mg/kg + compound 4.5 mg/kg i.p., day +3, unit not given) was 26.9 ± 0.5 and the Body weight (STZ-treated mice; STZ 210 mg/kg + compound 4.5 mg/kg i.p., day +7, unit not given) was 27.1 ± 0.7. For the same compound, the Body weight (STZ-treated mice; STZ 210 mg/kg + compound 4.5 mg/kg i.p., day +10, unit not given) was 27.2 ± 0.9, the Blood glucose (STZ-treated mice; STZ 210 mg/kg i.p. day 0 + compound 4.5 mg/kg i.p. days −2 to +7, day 0) was 4.1 ± 0.4 mM and the Blood glucose (STZ-treated mice; STZ 210 mg/kg i.p. day 0 + compound 4.5 mg/kg i.p. days −2 to +7, day +1) was 5.7 ± 0.5 mM. The Blood glucose (STZ-treated mice; STZ 210 mg/kg i.p. day 0 + compound 4.5 mg/kg i.p. days −2 to +7, day +2) was 8.2 ± 1.4 mM, the Blood glucose (STZ-treated mice; STZ 210 mg/kg i.p. day 0 + compound 4.5 mg/kg i.p. days −2 to +7, day +3) was 10.1 ± 1.5 mM and the Blood glucose (STZ-treated mice; STZ 210 mg/kg i.p. day 0 + compound 4.5 mg/kg i.p. days −2 to +7, day +7) was 10.9 ± 1.2 mM. The Blood glucose (STZ-treated mice; STZ 210 mg/kg i.p. day 0 + compound 4.5 mg/kg i.p. days −2 to +7, day +10) was 11.0 ± 0.8 mM, the Blood glucose (STZ-treated mice; STZ 210 mg/kg i.p. day 0 + compound 4.5 mg/kg i.p. days −2 to +7, day −1) was 4.6 ± 0.7 mM and the “protection of islet β-cells” value (STZ-treated mice; STZ-induced type 1 diabetes model) was “protected islet β-cells”. For the same compound, the “effect on STZ-induced rise of blood glucose” value (STZ-treated mice; STZ-treated animals, 4.5 mg/kg i.p.) was “prevent drastic increase in blood glucose level”, the “effect on STZ-induced body weight loss” value (STZ-treated mice; STZ-treated mice, to day 10) was “reduced the effect of STZ on body weight” and the Blood glucose (STZ-treated mice; compound alone 4.5 mg/kg i.p. days −2 to +7, no STZ, day 0) was 4.5 ± 0.4 mM. It also gave a Blood glucose (STZ-treated mice; compound alone 4.5 mg/kg i.p. days −2 to +7, no STZ, day +1) of 4.7 ± 0.6 mM, a Blood glucose (STZ-treated mice; compound alone 4.5 mg/kg i.p. days −2 to +7, no STZ, day +2) of 4.6 ± 0.4 mM and a Blood glucose (STZ-treated mice; compound alone 4.5 mg/kg i.p. days −2 to +7, no STZ, day +3) of 4.7 ± 0.4 mM. For the same compound, the Blood glucose (STZ-treated mice; compound alone 4.5 mg/kg i.p. days −2 to +7, no STZ, day +7) was 4.6 ± 0.4 mM, the Blood glucose (STZ-treated mice; compound alone 4.5 mg/kg i.p. days −2 to +7, no STZ, day +10) was 4.3 ± 0.6 mM and the Blood glucose (STZ-treated mice; compound alone 4.5 mg/kg i.p. days −2 to +7, no STZ, day −1) was 4.5 ± 0.4 mM. For the same compound, the Body weight (STZ-treated mice; compound alone 4.5 mg/kg i.p., no STZ, day 0, unit not printed in table (animals 28-31 g)) was 28.2 ± 0.9, the Body weight (STZ-treated mice; compound alone 4.5 mg/kg i.p., no STZ, day +1, unit not given) was 28.7 ± 0.4 and the Body weight (STZ-treated mice; compound alone 4.5 mg/kg i.p., no STZ, day +2, unit not given) was 28.1 ± 0.4. The Body weight (STZ-treated mice; compound alone 4.5 mg/kg i.p., no STZ, day +3, unit not given) was 28.7 ± 0.7, the Body weight (STZ-treated mice; compound alone 4.5 mg/kg i.p., no STZ, day +7, unit not given) was 29.5 ± 0.8 and the Body weight (STZ-treated mice; compound alone 4.5 mg/kg i.p., no STZ, day +10, unit not given) was 30.3 ± 1.4. For the same compound, the “effect on MSC proliferation” value ([1]; 10 μM, 10% serum) was “enhanced cell proliferation”, the “effect on expansion of stem cells” value ([1]; 5-10 μM, absence and presence of 2% serum, between days 3 and 6) was “significantly increased the expansion of stem cells” and the “effect on MSC cell numbers” value ([1]; 5-10 μM, absence or presence of 2% serum, first 3 days) was “slightly enhance cell numbers”. For the same compound, the “Cell number per culture” value ([1]; 0% serum, day 2, 5 μM) was 6.4 ± 2.0 ×10^−3, the “Cell number per culture” value ([1]; 0% serum, day 2, 10 μM) was 5.9 ± 1.9 ×10^−3 and the “Cell number per culture” value ([1]; 0% serum, day 2, 50 μM) was 4.0 ± 1.6 ×10^−3. For the same compound, the “Cell number per culture” value ([1]; 0% serum, day 4, 5 μM) was 8.1 ± 2.1 ×10^−3, the “Cell number per culture” value ([1]; 0% serum, day 4, 10 μM) was 6.8 ± 2.4 ×10^−3 and the “Cell number per culture” value ([1]; 0% serum, day 4, 50 μM) was 3.4 ± 1.1 ×10^−3. For the same compound, the “Cell number per culture” value ([1]; 0% serum, day 6, 5 μM) was 12.5 ± 1.6 ×10^−3, the “Cell number per culture” value ([1]; 0% serum, day 6, 10 μM) was 10.2 ± 1.4 ×10^−3 and the “Cell number per culture” value ([1]; 0% serum, day 6, 50 μM) was 3.8 ± 1.2 ×10^−3. For the same compound, the “Cell number per culture” value ([1]; 2% serum, day 2, 5 μM) was 7.1 ± 2.7 ×10^−3, the “Cell number per culture” value ([1]; 2% serum, day 2, 10 μM) was 6.3 ± 1.6 ×10^−3 and the “Cell number per culture” value ([1]; 2% serum, day 2, 50 μM) was 3.9 ± 1.1 ×10^−3. The “Cell number per culture” value ([1]; 2% serum, day 4, 5 μM) was 11.6 ± 2.4 ×10^−3, the “Cell number per culture” value ([1]; 2% serum, day 4, 10 μM) was 9.2 ± 2.3 ×10^−3 and the “Cell number per culture” value ([1]; 2% serum, day 4, 50 μM) was 5.2 ± 1.6 ×10^−3. For the same compound, the “Cell number per culture” value ([1]; 2% serum, day 6, 5 μM) was 20.8 ± 2.5 ×10^−3, the “Cell number per culture” value ([1]; 2% serum, day 6, 10 μM) was 17.4 ± 2.0 ×10^−3 and the “Cell number per culture” value ([1]; 2% serum, day 6, 50 μM) was 7.0 ± 3.3 ×10^−3. The Cell number/culture ([1]; 2.0 μM, 0% serum, Day 3) was 4.7 ± 3.5 ×10^−3, the Cell number/culture ([1]; 2.0 μM, 0% serum, Day 6) was 6.2 ± 1.7 ×10^−3 and the Cell number/culture ([1]; 2.0 μM, 2% serum, Day 3) was 4.9 ± 2.6 ×10^−3. The Cell number/culture ([1]; 2.0 μM, 2% serum, Day 6) was 16.4 ± 2.5 ×10^−3, the Cell number/culture ([1]; 2.0 μM, 10% serum, Day 3) was 5.9 ± 1.7 ×10^−3 and the Cell number/culture ([1]; 2.0 μM, 10% serum, Day 6) was 33.3 ± 5.2 ×10^−3. The Cell number/culture ([1]; 5.0 μM, 0% serum, Day 3) was 5.9 ± 2.1 ×10^−3, the Cell number/culture ([1]; 5.0 μM, 0% serum, Day 6) was 10.3 ± 2.5 ×10^−3 and the Cell number/culture ([1]; 5.0 μM, 2% serum, Day 3) was 7.2 ± 1.3 ×10^−3. The Cell number/culture ([1]; 5.0 μM, 2% serum, Day 6) was 18.3 ± 4.8 ×10^−3, the Cell number/culture ([1]; 5.0 μM, 10% serum, Day 3) was 6.2 ± 2.6 ×10^−3 and the Cell number/culture ([1]; 5.0 μM, 10% serum, Day 6) was 36.4 ± 5.2 ×10^−3. The Cell number/culture ([1]; 10.0 μM, 0% serum, Day 3) was 6.3 ± 2.2 ×10^−3, the Cell number/culture ([1]; 10.0 μM, 0% serum, Day 6) was 13.3 ± 3.2 ×10^−3 and the Cell number/culture ([1]; 10.0 μM, 2% serum, Day 3) was 5.6 ± 1.6 ×10^−3. The Cell number/culture ([1]; 10.0 μM, 2% serum, Day 6) was 19.0 ± 3.8 ×10^−3, the Cell number/culture ([1]; 10.0 μM, 10% serum, Day 3) was 5.1 ± 1.7 ×10^−3 and the Cell number/culture ([1]; 10.0 μM, 10% serum, Day 6) was 39.1 ± 4.1 ×10^−3. For the same compound, the Cell number/culture ([1]; 25.0 μM, 0% serum, Day 3) was 4.4 ± 1.7 ×10^−3, the Cell number/culture ([1]; 25.0 μM, 0% serum, Day 6) was 6.4 ± 3.1 ×10^−3 and the Cell number/culture ([1]; 25.0 μM, 2% serum, Day 3) was 4.7 ± 2.6 ×10^−3. The Cell number/culture ([1]; 25.0 μM, 2% serum, Day 6) was 12.9 ± 4.9 ×10^−3, the Cell number/culture ([1]; 25.0 μM, 10% serum, Day 3) was 5.2 ± 2.1 ×10^−3 and the Cell number/culture ([1]; 25.0 μM, 10% serum, Day 6) was 33.5 ± 5.3 ×10^−3. The Cell number/culture ([1]; 100.0 μM, 0% serum, Day 3) was 1.1 ± 1.6 ×10^−3, the Cell number/culture ([1]; 100.0 μM, 0% serum, Day 6) was 1.3 ± 1.1 ×10^−3 and the Cell number/culture ([1]; 100.0 μM, 2% serum, Day 3) was 1.5 ± 1.1 ×10^−3. The Cell number/culture ([1]; 100.0 μM, 2% serum, Day 6) was 5.8 ± 3.2 ×10^−3, the Cell number/culture ([1]; 100.0 μM, 10% serum, Day 3) was 4.4 ± 2.5 ×10^−3 and the Cell number/culture ([1]; 100.0 μM, 10% serum, Day 6) was 14.8 ± 3.1 ×10^−3. For the same compound, the “decrease of the effects on cell survival and proliferation when added late” value ([1]; compound added 6 hours after medium change, data not shown) was 50-70%.
